Source: US6541453B2, “Peptide derivatives” (Syngenta Limited, priority 1996, dated 2003)
Read-outs that look alike come from different tables or passages of the source.

Columns and labels:
[1] = molecular target: T1, HLA-DR1 (Homo sapiens, UniProt P01903+P01911, A100R/D57E/F55L/F60I/F76Y/I96L/L162R/M171V/P40L/Q125E/R42F/V115G/Y59C); experiment: Variant to Test A: peptide selectivity binding assay
T1 construct: endogenous in cells; host or cells: Hom 2 cell line
Procedure: The method used was a modification of that described by Gorga et al, 1987, J.Biol.Chem. 262, 16087-16094. Human HLA-DR antigens were purified from various cell lines by immunoaffinity chromatography. Briefly, 1×10^9-5×10^9 pelleted cells of the appropriate cell line selected from Hom 2 (source of DR1), BBF (source of DR2), AVL-B (source of DR3), JAH (source of DR4Dw4), JHAF (source of DR4Dw13) or PE117 (source of DR4Dwl4) were solubilised at approximately 4° C. in 50 ml of 5 mM EDTA (sodium salt), 50 mM Tris-HCL pH 7.4, 2% NP40, 150 mM NaCl, 1 mM iodoacetamide, 1 mM PMSF, by homogenisation with 10 strokes of a teflon glass homogeniser. […] Protein content was determined by a Biorad protein assay and purity by SDS-PAGE electrophoresis.
200 nM biotin-FHA307-320 in phosphate buffered saline (PBS) was incubated with either purified HLA-DR1, DR2, DR4Dw4, DR4Dw13 or DR4Dwl4 (2-20 μg/ml) in V-well microtitre plates (Nunc) with or without inhibitor peptides in assay buffer (PBS, 0.01% NP40 (Sigma.)) For DR3 inhibition, 400 nM Biotin-Ahx-(D)Ala-Ala-Ala-Cha-[…](D)Ala-OH [SEQ ID No. 14] was incubated with purified DR3 (20 μg/ml.), and incubated as above. After 48 hours, the incubates were treated, and absorbance readings taken as described in Test A. The inhibitory activity of peptides, expressed as IC50 values, was calculated using Microcal Origin software on a PC.

[2] = Peptide content of extruded polymer depot formulation (loss on extrusion); type: physicochemical
Procedure: About 20 mg of peptide is accurately weighed and sufficient polymer (50/50% molar poly(D,L-lactic acid/glycolic acid) copolymer of approximate weight average molecular weight 20 kD and approximate polydispersity of 1.7 as determined by size exclusion chromatography relative to polystyrene standards) added to produce an approximate 20% w/w mixture. This is dissolved in anhydride-free glacial acetic acid to produce an approximate 10% w/v solution. The solution is freeze dried and the resulting freeze dried product is stored under vacuum prior to use.
About 100 mg of freeze dried material is loaded into the barrel of a small laboratory extruder and the plunger pushed down to consolidate the sample. The extruder is heated to between 90 and 95 ° C. and held at this temperature for 10 minutes before the freeze dried material is extruded under pressure to give a cylindrical extrudate of approximately 1 mm in diameter. […]
Each standard is filtered through a 5 μm Millex PTFE filter and an aliquot of filtrate, together with aliquots of the solutions A, analysed by HPLC using duplicate sample injections. The peptide content of the extruded polymer depot formulation of peptide is calculated from the concentration of peptide in solutions A, which is determined by comparing the area of the peptide peak in solutions A with the area of the peptide peak from the standard solutions.

[3] = Aqueous stability of peptide in McIlvaine's citric acid-phosphate buffer
[4] = Degradation of peptide on in vitro release from an extruded polymer depot

SMILES	IC50 [1]	loss due to degradation on extrusion [2]	aqueous stability ([3]; pH3)	aqueous stability ([3]; pH7.6)	degradation on release from depot formulation [4]	aqueous stability (pH3)	aqueous stability (pH7.6)
COCCN(CCOC)C(=O)CN(CC(=O)N(CCOC)CCOC)C(=O)C[C@H](NC(=O)[C@H](C)NC(=O)[C@H](CCCNC(=N)N)NC(=O)[C@H](C)NC(=O)CCCCc1ccccc1)C(=O)N[C@H](C(=O)N[C@@H]1CCN([C@@H](C)C(=O)N[C@@H](C)C(=O)Nc2ccc(CC(N)=O)cc2)C1=O)[C@@H](C)O [Example 3, Phv-Ala-Arg-Ala-II-Thr-IIIa-Ala-Papa-NH2]	> 100 µM	minimal loss due to degradation on extrusion	good aqueous stability	good aqueous stability	minimal degradation on release		
COCCOCCOCCN(CCOCCOCCOC)C(=O)CN(CC(=O)N(CCOCCOCCOC)CCOCCOCCOC)C(=O)C[C@H](NC(=O)[C@H](C)NC(=O)[C@H](C)NC(=O)[C@H](CCCNC(=N)N)NC(=O)CCCCc1ccccc1)C(=O)N[C@H](C(=O)N[C@@H]1CCN([C@@H](C)C(=O)N[C@@H](C)C(=O)Nc2ccc(CC(N)=O)cc2)C1=O)[C@@H](C)O [Example 6, Phv-Arg-Ala-Ala-II-Thr-IIIa-Ala-Papa-NH2]	> 100 µM	minimal loss due to degradation on extrusion				good aqueous stability	good aqueous stability
